Test results published in ChEMBL document CHEMBL1150657, “Assessment of the antiprotozoal activity of Galphimia glauca and the isolation of new nor-secofriedelanes and nor-friedelanes” (J Nat Prod, 2002).

Tests used:
KB = assay: Cytotoxicity against human KB cells; format: cell-based
Leishmania donovani = assay: Antileishmanial activity against Leishmania donovani (MHOM/ET/67/L82) promastigotes; format: functional, organism-based
[1] = test system: Trypanosoma brucei brucei; assay: Antitrypanosomal activity against Trypanosoma brucei brucei S427 blood stream trypomastigotes; format: functional, organism-based
Plasmodium falciparum = assay: Antiprotozoal activity against Plasmodium falciparum K1; format: functional, organism-based

SMILES	IC50 (Leishmania donovani)	IC50 [1]	IC50 (Plasmodium falciparum)	IC50 (KB)
CCN(CC)CCCC(C)Nc1ccnc2cc(Cl)ccc12 (stereo not drawn) [CHLOROQUINE]	–	–	–	51.4 µg/mL
COc1cc([C@@H]2c3cc4c(cc3[C@H](O)[C@H]3COC(=O)[C@H]23)OCO4)cc(OC)c1OC [PODOFILOX]	–	–	–	0.00621 µg/mL
O=c1c(O)c(-c2ccc(O)c(O)c2)oc2cc(O)cc(O)c12 [QUERCETIN]	29.5 µg/mL	4.5 µg/mL	6.5 µg/mL	136 µg/mL
CC[C@H](/C=C/[C@@H](C)[C@H]1CC[C@H]2[C@@H]3CC=C4C[C@@H](O[C@@H]5O[C@H](CO)[C@@H](O)[C@H](O)[C@H]5O)CC[C@]4(C)[C@H]3CC[C@]12C)C(C)C [STIGMASTEROL GLUCOSIDE]	> 100 µM	> 100 µM	> 100 µM	> 100 µM
CC[C@H](/C=C/[C@@H](C)[C@H]1CC[C@H]2[C@@H]3CC=C4C[C@@H](O)CC[C@]4(C)[C@H]3CC[C@]12C)C(C)C [STIGMASTEROL]	> 100 µM	> 100 µM	> 100 µM	> 100 µM

More lines, main results first:

IC50 (Leishmania donovani)	IC50 [1]	IC50 (Plasmodium falciparum)	SMILES	IC50 (KB)
> 100 µM	> 100 µM	> 100 µM	C=C1C[C@H](C(=O)OC)[C@]2(C)CC[C@]3(C)[C@H]4[C@H](O)[C@@H](O)[C@]5(COC(C)=O)[C@@H](C)[C@@H](OC(C)=O)CC[C@H]5[C@]4(C)CC[C@@]3(O)[C@]2(O)C1 [GALPHIMIDIN]	> 100 µM
> 100 µM	> 100 µM	> 100 µM	C=C1CC[C@]2(C)CC[C@]3(C)[C@H]4[C@H](OC(C)=O)C[C@]5(COC(C)=O)[C@@H](C)OC(=O)[C@H]6O[C@H]6[C@H]5[C@]4(C)CC[C@@]3(C(=O)OC)[C@]2(O)C1 [GALPHIN A]	> 100 µM
> 100 µM	> 100 µM	> 100 µM	C=C1C[C@@H](OC(C)=O)[C@]2(C)CC[C@]3(C)[C@H]4[C@H](OC(C)=O)C[C@]5(COC(C)=O)[C@@H](C)OC(=O)[C@H]6O[C@H]6[C@H]5[C@]4(C)CC[C@@]3(C(=O)OC)[C@]2(O)C1 [GALPHIN B]	> 100 µM
> 100 µM	> 100 µM	> 100 µM	C=C1C[C@@H](OC(C)=O)[C@]2(C)CC[C@]3(C)[C@H]4[C@H](OC(C)=O)C[C@]5(COC(C)=O)[C@@H](C)OC(=O)[C@H]6O[C@H]6[C@H]5[C@]4(C)C[C@H](OC(C)=O)[C@@]3(C(=O)OC)[C@]2(O)C1 [GALPHIN C]	> 100 µM
0.24 µg/mL	0.0006 µg/mL	–	N=C(N)c1ccc(OCCCCCOc2ccc(C(=N)N)cc2)cc1 [PENTAMIDINE]	0.11 µg/mL
